Measurements as given in ChEMBL document CHEMBL1201862, “PubChem BioAssay data set” (2004).
The source made the active and inactive calls.

How the values were obtained:
[1] = biological target: T1, Histone-lysine N-methyltransferase NSD2 (Homo sapiens, UniProt O96028); format: biochemical
T1 sequence (O96028 whole entry): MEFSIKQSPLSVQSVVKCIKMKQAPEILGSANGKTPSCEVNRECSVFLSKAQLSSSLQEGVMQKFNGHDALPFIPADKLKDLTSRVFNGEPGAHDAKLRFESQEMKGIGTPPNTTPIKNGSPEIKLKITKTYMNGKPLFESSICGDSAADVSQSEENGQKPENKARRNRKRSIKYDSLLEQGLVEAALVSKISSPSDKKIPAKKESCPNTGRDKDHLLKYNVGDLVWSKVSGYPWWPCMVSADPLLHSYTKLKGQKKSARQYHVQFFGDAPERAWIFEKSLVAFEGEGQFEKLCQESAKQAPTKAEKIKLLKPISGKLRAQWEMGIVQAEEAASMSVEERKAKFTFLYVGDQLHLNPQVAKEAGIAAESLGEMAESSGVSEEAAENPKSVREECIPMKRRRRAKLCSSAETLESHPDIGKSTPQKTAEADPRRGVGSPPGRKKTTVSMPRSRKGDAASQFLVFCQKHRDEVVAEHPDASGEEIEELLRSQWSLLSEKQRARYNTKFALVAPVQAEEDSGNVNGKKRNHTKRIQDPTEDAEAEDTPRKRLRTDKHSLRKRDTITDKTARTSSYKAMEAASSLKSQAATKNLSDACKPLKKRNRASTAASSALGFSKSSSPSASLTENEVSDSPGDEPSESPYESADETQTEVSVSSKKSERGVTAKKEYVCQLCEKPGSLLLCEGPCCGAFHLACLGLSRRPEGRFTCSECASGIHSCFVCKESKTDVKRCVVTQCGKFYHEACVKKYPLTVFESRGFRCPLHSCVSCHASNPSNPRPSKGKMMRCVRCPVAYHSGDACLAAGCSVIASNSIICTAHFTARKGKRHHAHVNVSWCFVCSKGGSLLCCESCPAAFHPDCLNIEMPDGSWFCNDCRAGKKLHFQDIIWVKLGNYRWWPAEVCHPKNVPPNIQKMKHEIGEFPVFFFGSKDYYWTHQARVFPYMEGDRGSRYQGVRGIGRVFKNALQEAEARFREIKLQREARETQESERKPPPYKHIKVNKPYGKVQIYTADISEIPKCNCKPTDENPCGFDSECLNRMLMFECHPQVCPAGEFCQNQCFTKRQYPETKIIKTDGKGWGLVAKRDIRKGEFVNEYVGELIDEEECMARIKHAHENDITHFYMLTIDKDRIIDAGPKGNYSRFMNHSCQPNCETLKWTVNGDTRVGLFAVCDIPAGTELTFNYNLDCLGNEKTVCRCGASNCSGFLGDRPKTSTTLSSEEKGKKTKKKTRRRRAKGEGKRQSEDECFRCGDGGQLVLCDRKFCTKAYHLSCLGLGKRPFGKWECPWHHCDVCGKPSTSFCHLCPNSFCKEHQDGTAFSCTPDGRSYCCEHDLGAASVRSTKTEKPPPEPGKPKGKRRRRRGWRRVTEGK

[2] = biological target: T2, Rac GTPase-activating protein 1 (Homo sapiens, UniProt Q9H0H5); experiment: MgcRacGAP GTPase-activating activity inhibitors, confirmation, biochemical, ADP Hunter fluorescence, primary and confirmatory (AID 624330); format: functional
T2 sequence (Q9H0H5 whole entry): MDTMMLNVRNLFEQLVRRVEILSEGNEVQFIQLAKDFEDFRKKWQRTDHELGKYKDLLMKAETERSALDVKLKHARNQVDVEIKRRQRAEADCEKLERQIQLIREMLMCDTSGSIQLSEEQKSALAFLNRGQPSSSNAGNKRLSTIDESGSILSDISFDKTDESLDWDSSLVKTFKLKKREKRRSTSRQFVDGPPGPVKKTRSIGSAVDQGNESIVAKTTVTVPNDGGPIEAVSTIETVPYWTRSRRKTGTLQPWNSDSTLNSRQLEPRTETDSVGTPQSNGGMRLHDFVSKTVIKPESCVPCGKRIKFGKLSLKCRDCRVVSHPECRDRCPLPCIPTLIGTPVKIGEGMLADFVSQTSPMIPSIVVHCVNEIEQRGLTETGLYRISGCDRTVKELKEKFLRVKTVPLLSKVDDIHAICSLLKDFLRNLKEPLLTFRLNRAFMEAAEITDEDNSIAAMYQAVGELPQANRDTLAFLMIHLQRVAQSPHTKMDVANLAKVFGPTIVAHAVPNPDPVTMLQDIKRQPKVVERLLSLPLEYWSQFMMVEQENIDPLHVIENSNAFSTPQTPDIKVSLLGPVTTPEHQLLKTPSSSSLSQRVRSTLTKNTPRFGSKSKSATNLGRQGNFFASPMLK

[3] = P. falciparum Dd2 growth inhibitors, dose response, SYBR Green, dry powder samples (AID 1159566); format: functional, cell-based;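 further: potency for growth inhibition with lower SYBR green DNA signal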
[4] = P. falciparum 3D7-ScDHODH growth inhibitors, dose response, SYBR Green, dry powder samples (AID 1159570); format: functional, cell-based;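 further: parasite growth measured after 72 hours of compound exposure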
[5] = P. falciparum Dd2 growth inhibitors, dose response, SYBR Green, cherry-picked samples (AID 1159567); format: functional, cell-based
[6] = P. falciparum ATP4 D1247Y mutant growth inhibitors, dose response, NITD609-resistant line, SYBR Green, dry powder (AID 1159571); format: functional, cell-based;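 further: parasites synchronized at ring stage by sorbitol before testing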
[7] = biological target: T3, Polyadenylate-binding protein 1 (Homo sapiens, UniProt P11940); experiment: PABP1 MLLE–PAM2 interaction inhibitors, dose response, miRNA deadenylation inhibitor project, biochemical, fluorescence polarization, Cy5-PAM2 peptide, secondary (AID 602260); format: functional; conditions: read-out: IC50_Mean
T3 sequence (P11940 whole entry): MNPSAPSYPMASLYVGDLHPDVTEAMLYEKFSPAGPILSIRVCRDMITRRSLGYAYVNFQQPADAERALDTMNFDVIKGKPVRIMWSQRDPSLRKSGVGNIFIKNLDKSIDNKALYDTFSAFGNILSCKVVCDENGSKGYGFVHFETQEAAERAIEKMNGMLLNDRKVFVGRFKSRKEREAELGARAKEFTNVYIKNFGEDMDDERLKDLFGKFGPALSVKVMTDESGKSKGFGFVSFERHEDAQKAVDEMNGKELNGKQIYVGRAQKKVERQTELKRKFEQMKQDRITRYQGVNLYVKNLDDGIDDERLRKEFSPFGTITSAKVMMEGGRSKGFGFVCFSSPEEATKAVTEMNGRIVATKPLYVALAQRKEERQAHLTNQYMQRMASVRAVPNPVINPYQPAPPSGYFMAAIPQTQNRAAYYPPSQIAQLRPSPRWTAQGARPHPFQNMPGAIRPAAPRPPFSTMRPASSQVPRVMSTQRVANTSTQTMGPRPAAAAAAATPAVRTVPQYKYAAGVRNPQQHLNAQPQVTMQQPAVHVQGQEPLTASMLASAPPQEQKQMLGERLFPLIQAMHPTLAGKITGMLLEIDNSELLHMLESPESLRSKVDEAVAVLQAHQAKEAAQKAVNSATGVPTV

[8] = biological target: T3, Polyadenylate-binding protein 1; experiment: PABP1 MLLE–PAM2 binding inhibitor potency, dose response, biochemical, fluorescence polarization, FITC-PAM2 peptide (AID 602259); format: functional; conditions: read-out: IC50_Mean
[9] = biological target: T4, Zinc finger protein mex-5 (Caenorhabditis elegans, UniProt Q9XUB2); experiment: MEX-5/TCR-2 RNA interaction inhibitors, dose response, biochemical, C. elegans, fluorescence polarization (AID 1960)
T4 sequence (Q9XUB2 whole entry): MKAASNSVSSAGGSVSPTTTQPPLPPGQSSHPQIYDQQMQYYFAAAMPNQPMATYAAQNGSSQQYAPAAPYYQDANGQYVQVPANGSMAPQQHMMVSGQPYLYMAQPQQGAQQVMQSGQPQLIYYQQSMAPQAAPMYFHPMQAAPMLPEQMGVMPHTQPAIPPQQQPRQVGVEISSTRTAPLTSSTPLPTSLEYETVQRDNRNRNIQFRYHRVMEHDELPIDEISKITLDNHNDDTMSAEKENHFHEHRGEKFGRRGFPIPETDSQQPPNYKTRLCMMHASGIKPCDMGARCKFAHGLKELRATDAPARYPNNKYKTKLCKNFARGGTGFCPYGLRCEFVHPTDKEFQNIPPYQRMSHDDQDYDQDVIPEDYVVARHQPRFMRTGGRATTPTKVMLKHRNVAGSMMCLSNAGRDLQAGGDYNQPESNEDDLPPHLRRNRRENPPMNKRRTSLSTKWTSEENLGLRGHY

[10] = biological target: T5, RNA-binding protein pos-1 (Caenorhabditis elegans, UniProt G5EF15); experiment: inhibitors of POS-1/mex-3 RNA binding, dose response, biochemical, fluorescence polarization (AID 1964);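 further: purified POS-1 fused to maltose binding protein made in E. coli; potency of compounds blocking POS-1 binding to fluorescent RNA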
T5 sequence (G5EF15 whole entry): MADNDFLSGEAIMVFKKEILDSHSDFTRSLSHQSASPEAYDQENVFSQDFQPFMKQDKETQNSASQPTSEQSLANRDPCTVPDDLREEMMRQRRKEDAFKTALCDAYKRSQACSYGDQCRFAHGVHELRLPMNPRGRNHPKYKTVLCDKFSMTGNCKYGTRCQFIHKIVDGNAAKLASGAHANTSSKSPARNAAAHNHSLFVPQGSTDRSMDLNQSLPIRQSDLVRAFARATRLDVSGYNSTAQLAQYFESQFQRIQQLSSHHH

[11] = inhibitors of SNCA 5'UTR-driven reporter translation, confirmation, H4 neuroglioma cells, luminescence (AID 1988); format: functional, cell-based
[12] = Luminescence Cell-Based Dose Response HTS to Identify Inhibitors of 5'UTR Stem-Loop Driven Prion Protein mRNA Translation in H4 Neuroglioblastoma Cells. [Related pubchem assays: 1827 (Project Summary), 1813 (Primary HTS)]; format: functional
HEK293 = experiment: inhibitors of LMP1-driven NF-kB reporter, dose response, cell-based, HEK293, luciferase, cherry-pick (AID 588343); format: functional; conditions: Homo sapiens
[13] = biological target: T6, Heat shock factor protein 1 (Mus musculus, UniProt P38532); experiment: HSF1 potentiators in luciferase reporter cells, confirmation, cell-based, NIH3T3, luminescence, dose retest (AID 435004); format: functional;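 further: stress induced by proteasome inhibitor MG132 added 30 min after compound; luciferase reporter driven by HSF1 response element in NIH3T3 cells; actives raise luminescence as potentiators of the MG132 stress response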
T6 sequence (P38532 whole entry): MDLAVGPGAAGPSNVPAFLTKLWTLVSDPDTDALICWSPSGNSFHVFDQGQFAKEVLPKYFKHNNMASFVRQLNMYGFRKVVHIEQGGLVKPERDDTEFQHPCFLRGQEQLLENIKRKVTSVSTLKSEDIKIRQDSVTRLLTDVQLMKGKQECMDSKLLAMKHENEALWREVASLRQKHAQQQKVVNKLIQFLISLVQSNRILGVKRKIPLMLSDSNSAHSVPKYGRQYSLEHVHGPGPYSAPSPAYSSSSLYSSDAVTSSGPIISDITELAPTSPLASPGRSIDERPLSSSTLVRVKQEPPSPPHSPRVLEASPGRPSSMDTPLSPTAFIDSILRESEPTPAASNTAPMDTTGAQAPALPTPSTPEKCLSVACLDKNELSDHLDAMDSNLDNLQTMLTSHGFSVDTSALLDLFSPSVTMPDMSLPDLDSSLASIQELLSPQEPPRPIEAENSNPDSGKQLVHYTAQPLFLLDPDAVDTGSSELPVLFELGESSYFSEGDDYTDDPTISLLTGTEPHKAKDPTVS

[14] = biological target: T6, Heat shock factor protein 1; experiment: inhibition of MG132-induced HSE-luciferase signal, confirmation, cell-based, NIH3T3, luminescence, dose retest (AID 2382); format: functional;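 further: NIH3T3 fibroblasts with HSF1-driven luciferase reporter stressed by proteasome inhibitor MG132; luminescence from HSF1-driven luciferase expression after 8 hours of MG132 stress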
[15] = inhibitors of HIV Env-driven cell fusion, dose response, cherry-pick (AID 652057); format: functional, cell-based
[16] = inhibitors of clade B AD8 Env fusion, dose response, cell-based, cherry-pick (AID 652062); format: functional;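 further: luciferase signal from cell-cell fusion driven by HIV-1 clade B AD8 Env; potency is for inhibitors of fusion seen as a drop in luminescence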
[17] = biological target: T7, Ubiquitin-conjugating enzyme E2 N (Homo sapiens, UniProt P61088); format: functional;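 further: Dose-response confirmation in a TR-FRET assay detecting UBC13-driven polyubiquitin chain formation, inhibition measured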
T7 sequence (P61088 whole entry): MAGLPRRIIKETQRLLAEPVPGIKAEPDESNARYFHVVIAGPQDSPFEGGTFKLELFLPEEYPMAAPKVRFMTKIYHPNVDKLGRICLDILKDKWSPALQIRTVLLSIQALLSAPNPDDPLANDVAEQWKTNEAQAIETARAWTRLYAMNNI

[18] = LGR2 antagonists, dose response, cell-based, HEK293, CRE-luciferase reporter, cherry pick, set 2 (AID 743343); format: functional;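 further: transfected cells were stimulated with diluted bursicon conditioned medium after compound addition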

CN(c1ccc(O)cc1)c1ccc([N+](=O)[O-])c2nonc12
AC50 [1]: > 20 µM (inactive) | IC50 [2]: 135 µM (active)

COc1ccc2c3c([nH]c2c1)[C@H](CO)N(Cc1cccc(F)c1)CC31CCN(Cc2ccccn2)CC1
AC50 [3]: 0.906 µM (active) | AC50 [4]: 0.902 µM (active) | AC50 [5]: 1.07 µM (active) | AC50 [6]: 0.922 µM (active)

COc1ccc(NC(=O)Nc2ccc(OCc3ccccc3)cc2)cn1
IC50 [7]: > 66 µM (inactive) | IC50 [8]: 20 µM (active) | EC50 [9]: 17.9 µM (active) | EC50 [10]: 29.2 µM (active)

Cc1nc(C)c(C(=O)Nc2ncc([N+](=O)[O-])s2)o1
AC50 [1]: > 20 µM (inactive) | EC50 [11]: 8.92 µM (inconclusive) | EC50 [12]: 10.2 µM (inconclusive) | AC50 (HEK293): 3.12 µM (active)

CC1CCCN(c2nc3ccccc3nc2C(C#N)S(=O)(=O)c2cccs2)C1 (stereo unspecified)
IC50 [7]: > 66 µM (inactive) | IC50 [8]: > 66 µM (inactive) | EC50 [9]: 11.2 µM (inconclusive) | EC50 [10]: 7.02 µM (inconclusive)

COc1ccccc1S(=O)(=O)N(C)C[C@H]1Oc2cc(/C=C/c3ccccc3)ccc2S(=O)(=O)N([C@H](C)CO)C[C@@H]1C
AC50 [3]: 1.9 µM (active) | AC50 [4]: 2.34 µM (active) | AC50 [5]: 2.43 µM (active) | AC50 [6]: 1.78 µM (active)

CCN(CC)CCCn1c(=S)[nH]c2ncccc2c1=O
AC50 [1]: 9.8 µM (active) | EC50 [13]: > 260 µM (inactive)

Cc1cc(C)nc(NS(=O)(=O)c2ccc(-n3cccc3)cc2)n1
AC50 [1]: > 20 µM (inactive) | EC50 [14]: > 195 µM (not active)

CC(C)SC1=NSC2=NC(=O)/C(=C\c3c[nH]c4ccccc34)C(=N)N21
EC50 [9]: > 300 µM (not active) | EC50 [10]: 18.6 µM (active)

CC(C)COC(=O)N(C)C[C@H]1OCc2ccccc2-c2c(n(C)c3ccccc23)C(=O)N([C@H](C)CO)C[C@@H]1C
AC50 [15]: < 0.26 µM (active) | AC50 [16]: 0.304 µM (active)

Cc1ccc(/C=N/Nc2[nH]cnc3ncnc2-3)cc1
EC50 [9]: > 300 µM (inconclusive) | EC50 [10]: > 300 µM (not active)

O=C(C1CCCC1)N1CC2(C1)[C@@H](c1ccccc1)[C@H](CO)N2Cc1ccc(Cl)cc1
AC50 [3]: 1.98 µM (active) | AC50 [4]: 3.13 µM (active) | AC50 [5]: 1.49 µM (active) | AC50 [6]: 3.62 µM (active)

CC(C)Cn1cc(C(=O)NCCCN2CCC(C)CC2)c2c3ccccc3n(C)c2c1=O
IC50 [17]: > 20 µM (inactive)

COc1ccc(OC)c(C2Nc3c(Cl)ccc(C(=O)O)c3C3C=CCC32)c1 (stereo unspecified)
EC50 [9]: 40.7 µM (active) | EC50 [10]: > 300 µM (not active)

NCCCC[C@@H]1NC(=O)c2cc([N+](=O)[O-])cc(F)c2NCCCC[C@@H](C(N)=O)NC(=O)CNC1=O
IC50 [17]: > 20 µM (inactive)

O=C(CC1CS(=O)(=O)CC1CC(=O)Nc1ccc2c(c1)OCCO2)Nc1ccc2c(c1)OCCO2 (stereo unspecified)
AC50 [18]: 45.8 µM (active)
